Measurements taken from US20220402882A1, “HERBICIDAL COMPOUNDS” (SYNGENTA CROP PROTECTION AG, priority 2019, published 2022).

Assays:
Type in all cases: in vivo
Conditions in all cases: evaluated after 13 days
[1] = tested on: Ipomoea hederacea (IPOHE); test: Pre-emergence glasshouse herbicide test
Description: (§1) Seeds of a variety of test species are sown in standard soil in pots (Lolium perenne (LOLPE), Amaranthus retoflexus (AMARE), Abutilon theophrasti (ABUTH), Setaria faberi (SETFA), Echinochloa crus-galli (ECHCG), Ipomoea hederacea (IPOHE)). After cultivation for one day (pre-emergence) or after 8 days cultivation (post-emergence) under controlled conditions in a glasshouse (at 24/16° C., day/night; 14 hours light; 65% humidity), the plants are sprayed with an aqueous spray solution derived from the formulation of the technical active ingredient in acetone/water (50:50) solution containing 0.5% Tween™ 20 (polyoxyethelyene sorbitan monolaurate, CAS RN 9005-64-5). Compounds are applied at 125 g/h unless otherwise indicated. The test plants are then grown in a glasshouse under controlled conditions in a glasshouse (at 24/16° C., day/night; 14 hours light; 65% humidity) and watered twice daily. After 13 days for pre- and post-emergence, the test is evaluated for the percentage damage caused to the plant. The biological activities are shown in the following table on a five-point scale (5=80-100%; 4=60-79%; 3=40-59%; 2=20-39%; 1=0-19%).

[2] = tested on: Echinochloa crus-galli (ECHCG); test: Pre-emergence glasshouse herbicide test
Description: as §1

[3] = tested on: Amaranthus retoflexus (AMARE); test: Pre-emergence glasshouse herbicide test
Description: as §1

[4] = tested on: Abutilon theophrasti (ABUTH); test: Pre-emergence glasshouse herbicide test
Description: as §1

Setaria faberi (SETFA) [5] = test: Pre-emergence glasshouse herbicide test
Description: as §1

[6] = tested on: Ipomoea hederacea (IPOHE); test: Post-emergence glasshouse herbicide test
Description: as §1

[7] = tested on: Echinochloa crus-galli (ECHCG); test: Post-emergence glasshouse herbicide test
Description: as §1

[8] = tested on: Amaranthus retoflexus (AMARE); test: Post-emergence glasshouse herbicide test
Description: as §1

[9] = tested on: Abutilon theophrasti (ABUTH); test: Post-emergence glasshouse herbicide test
Description: as §1

Setaria faberi (SETFA) [10] = test: Post-emergence glasshouse herbicide test
Description: as §1

SMILES | percentage damage caused to the plant, IPOHE ([1]; *Applied at 250 g/ha) | percentage damage caused to the plant, ECHCG ([2]; *Applied at 250 g/ha) | percentage damage caused to the plant, AMARE ([3]; *Applied at 250 g/ha) | percentage damage caused to the plant, ABUTH ([4]; *Applied at 250 g/ha) | percentage damage caused to the plant, SETFA (Setaria faberi (SETFA) [5]; *Applied at 250 g/ha) | percentage damage caused to the plant, IPOHE ([6]; *Applied at 250 g/ha) | percentage damage caused to the plant, ECHCG ([7]; *Applied at 250 g/ha) | percentage damage caused to the plant, AMARE ([8]; *Applied at 250 g/ha) | percentage damage caused to the plant, ABUTH ([9]; *Applied at 250 g/ha) | percentage damage caused to the plant, SETFA (Setaria faberi (SETFA) [10]; *Applied at 250 g/ha) | percentage damage caused to the plant, IPOHE ([1]; 125 g/h) | percentage damage caused to the plant, ECHCG ([2]; 125 g/h) | percentage damage caused to the plant, AMARE ([3]; 125 g/h) | percentage damage caused to the plant, ABUTH ([4]; 125 g/h) | percentage damage caused to the plant, SETFA (Setaria faberi (SETFA) [5]; 125 g/h) | percentage damage caused to the plant, IPOHE ([6]; 125 g/h) | percentage damage caused to the plant, ECHCG ([7]; 125 g/h) | percentage damage caused to the plant, AMARE ([8]; 125 g/h) | percentage damage caused to the plant, ABUTH ([9]; 125 g/h) | percentage damage caused to the plant, SETFA (Setaria faberi (SETFA) [10]; 125 g/h)
CSc1c(OC(F)(F)F)ccc(C(=O)Nc2nnnn2C)c1Cl [Compound 1.005, 2-chloro-3-methylsulfanyl-N-(1-methyltetrazol-5-yl)-4-(trifluoromethoxy)benzamide] | 1 (1=0-19%) | 1 (1=0-19%) | 4 (4=60-79%) | 2 (2=20-39%) | 1 (1=0-19%) | 5 (5=80-100%) | 5 (5=80-100%) | 5 (5=80-100%) | 5 (5=80-100%) | 5 (5=80-100%) |  |  |  |  |  |  |  |  |  | 
CSc1c(OC(F)(F)C(F)F)ccc(C(=O)Nc2nnnn2C)c1Cl [Compound 1.009, 2-chloro-3-methylsulfanyl-N-(1-methyltetrazol-5-yl)-4-(1,1,2,2-tetrafluoroethoxy)benzamide] |  |  |  |  |  |  |  |  |  |  | 3 (3=40-59%) | 5 (5=80-100%) | 5 (5=80-100%) | 4 (4=60-79%) | 5 (5=80-100%) | 4 (4=60-79%) | 4 (4=60-79%) | 4 (4=60-79%) | 4 (4=60-79%) | 4 (4=60-79%)
Cc1c(C(=O)Nc2nnnn2C)ccc(OC(F)(F)F)c1S(C)(=O)=O [Compound 1.013] |  |  |  |  |  |  |  |  |  |  | 5 (5=80-100%) | 5 (5=80-100%) | 5 (5=80-100%) | 5 (5=80-100%) | 5 (5=80-100%) | 5 (5=80-100%) | 5 (5=80-100%) | 5 (5=80-100%) | 5 (5=80-100%) | 5 (5=80-100%)
CC[S+]([O-])c1c(CC(F)(F)F)ccc(C(=O)Nc2nnnn2C)c1Cl (centres unmarked) [Compound 1.020] |  |  |  |  |  |  |  |  |  |  | 5 (5=80-100%) | 5 (5=80-100%) | 5 (5=80-100%) | 5 (5=80-100%) | 5 (5=80-100%) | 5 (5=80-100%) | 5 (5=80-100%) | 5 (5=80-100%) | 5 (5=80-100%) | 5 (5=80-100%)
CCSc1c(OC(F)(F)F)ccc(C(=O)Nc2nnnn2C)c1Cl [Compound 1.021] |  |  |  |  |  |  |  |  |  |  | 3 (3=40-59%) | 5 (5=80-100%) | 5 (5=80-100%) | 4 (4=60-79%) | 5 (5=80-100%) | 5 (5=80-100%) | 5 (5=80-100%) | 4 (4=60-79%) | 5 (5=80-100%) | 5 (5=80-100%)
